The text below walks through data of patent EP0298474B1, “Novel calcitonin derivative and salt thereof” (MITSUBISHI PETROCHEMICAL CO., LTD., priority 1987, dated 1992).

A short description of data set [1]: biological activity assay according to the method of Japanese Provisional Patent Publication No. 123500/1985. The class given is in vivo. The protocol:
The crude (Oct¹, Cys(CA)⁷)-CCT obtained was dissolved in a 1 M acetic acid (5 mg/ml) and purified by the reverse phase high performance liquid chromatography. Chemcopack ODS-H (trade name, ø: 10 mm x 250 mm) column produced by Chemco Co. was used, with the eluents employed being water (100) - 10 % TFA (1) for the eluent A and water (40) -acetonitrile (60) - 10 % TFA (1) for the eluent B, and the elution was effected under the linear concentration gradient from the eluent A to the eluent B. Here, the numerals within bracckets represent volume ratios. The fraction corresponding to (Oct¹, Cys(CA)⁷)-CCT was collected and lyophilized to obtain 2.8 mg of white powder. The biological activity of the white powder obtained was assayed according to the method as described in Japanese Provisional Patent Publication No. 123500/1985. […]

A short description of data set [2]: stability test in solution (heat treatment, remaining peak area by reverse phase HPLC). The class given is physicochemical. The settings on record: 0.1 M sodium citrate buffer (pH 6.0), 10 µg/ml, sealed tube at 80 °C for 24 hours; stated in words relative to Example 1.
Procedure: The (Oct¹, Cys(CA)⁷)-CCT was dissolved in 0.1 M sodium citrate buffer (pH 6.0) to a concentration of 10 µg/ml. One ml of this solution was left to stand in a sealed tube at 80 °C for 24 hours. By analysis according to the reverse phase HPLC by use of the measurement conditions (1), the eluted peak area A of the remaining (Oct¹, Cys(CA)⁷)-CCT was determined. Similarly, the eluted peak area B of the (Oct¹, Cys(CA)⁷)-CCT in the sample solution not subjected to the heat treatment was determined, and the ratio of A to B (%) was defined as the index.
Where [3] appears, read: method of Japanese Provisional Patent Publication No. 123500/1985.
Setting [4] is: stated in words relative to (Oct¹, Cys(CA)⁷)-CCT of Example 1.

Positions of bridges follow the written chain, without caps; N, C: chain ends. Residues, ends and D or L forms follow the SMILES beside them.

The compound `CC(C)C[C@H](NC(=O)[C@H](CCCCN)NC(=O)CNC(=O)[C@H](CC(C)C)NC(=O)[C@@H](NC(=O)[C@@H]1CSSC[C@H](N)C(=O)N[C@@H](C)C(=O)N[C@@H](CO)C(=O)N[C@@H](CC(C)C)C(=O)N[C@@H](CO)C(=O)N[C@@H]([C@@H](C)O)C(=O)N1)C(C)C)C(=O)N[C@@H](CO)C(=O)N[C@@H](CCC(N)=O)C(=O)N[C@@H](CCC(=O)O)C(=O)N[C@@H](CC(C)C)C(=O)N[C@@H](Cc1c[nH]cn1)C(=O)N[C@@H](CCCCN)C(=O)N[C@@H](CC(C)C)C(=O)N[C@@H](CCC(N)=O)C(=O)N[C@H](C(=O)N[C@@H](Cc1ccc(O)cc1)C(=O)N1CCC[C@H]1C(=O)N[C@@H](CCCNC(=N)N)C(=O)N[C@H](C(=O)N[C@@H](CC(=O)O)C(=O)N[C@H](C(=O)NCC(=O)N[C@@H](C)C(=O)NCC(=O)N[C@H](C(=O)N1CCC[C@H]1C(N)=O)[C@@H](C)O)C(C)C)[C@@H](C)O)[C@@H](C)O` [natural type CCT, reference compound] (H-CASLSTCVLGKLSQELHKLQTYPRTDVGAGTP-NH2; disulfide 1-7) displayed a biological activity in data set [1] (setting [3]) of 4500 MRC U/mg. The compound (Oct¹, Ala³, Cys(CA)⁷)-CCT returned a biological activity in data set [1] (setting [3]) of 6100 MRC U/mg.

(Oct¹, Cys(Acm)⁷)-CCT: the biological activity in data set [1] (setting [3]) came to 5500 MRC U/mg.

(Oct¹, Cys(Acm)⁷)-ECT registered a biological activity in data set [1] (setting [3]) of 5400 MRC U/mg. Take (Oct¹, Cys(CA)⁷)-CCT: the biological activity in data set [1] (setting [3]) is listed as 5400 MRC U/mg; in data set [1] (setting [4]) it was “equal to that obtained in Example 1”. Regarding (Oct¹, Cys⁷)-CCT, in data set [2], the “stability (ratio of A to B (%), remaining peak area)” value is listed as “substantially equal to those of (Oct¹, Cys(CA)⁷)-CCT of Example 1”. Also, the biological activity entry in data set [1] (setting [4]) is reported as “substantially equal to those of (Oct¹, Cys(CA)⁷)-CCT of Example 1”.

For (Oct¹, Thr³, Cys(CA)⁷)-CCT, the biological activity in data set [1] (setting [3]) is recorded as 7800 MRC U/mg. For the compound (pGlu¹, Cys(CA)⁷)-CCT, the “stability (ratio of A to B (%), remaining peak area)” value in data set [2] is “substantially equal to those of (Oct¹, Cys(CA)⁷)-CCT of Example 1”. For the same compound, in data set [1] (setting [4]), the biological activity entry was “substantially equal to those of (Oct¹, Cys(CA)⁷)-CCT of Example 1”.
